Test results as given in PMC9597875 (Frontiers in Pharmacology, 2022).

Assays:
CYP2C8 = biological target: T1, CYP2C8 (Homo sapiens, UniProt P10632); experiment: CYP2C8 activity inhibition assay in human liver microsomes (paclitaxel hydroxylation, LC-MS/MS); details: for IC50: IC50 CYP2C8, HLM, paclitaxel 5 µM
T1 sequence (P10632 1-490): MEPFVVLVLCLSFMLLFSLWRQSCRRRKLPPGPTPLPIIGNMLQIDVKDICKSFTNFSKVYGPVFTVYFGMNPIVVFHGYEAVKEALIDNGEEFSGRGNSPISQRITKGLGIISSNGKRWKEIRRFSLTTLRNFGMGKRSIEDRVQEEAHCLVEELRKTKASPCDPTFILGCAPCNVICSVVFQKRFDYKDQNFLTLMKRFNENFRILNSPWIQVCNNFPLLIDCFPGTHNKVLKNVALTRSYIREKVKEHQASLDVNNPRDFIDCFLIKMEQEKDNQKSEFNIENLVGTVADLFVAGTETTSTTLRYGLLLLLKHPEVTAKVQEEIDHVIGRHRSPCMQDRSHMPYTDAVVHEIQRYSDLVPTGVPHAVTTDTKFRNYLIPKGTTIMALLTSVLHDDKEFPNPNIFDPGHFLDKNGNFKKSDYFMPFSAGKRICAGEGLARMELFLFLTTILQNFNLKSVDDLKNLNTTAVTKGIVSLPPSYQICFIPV

CYP2D6 [1] = biological target: T2, CYP2D6 (Homo sapiens, UniProt P10635); experiment: biochemical
CYP2D6 [2] = biological target: T2, CYP2D6; details: HLM; as compared to quinidine
CYP3A4 = CYP3A4 (Homo sapiens, UniProt P08684); experiment: CYP3A4 activity inhibition assay in human liver microsomes (testosterone 6β-hydroxylation, LC-MS/MS)
Sequence of CYP3A4 (P08684 whole entry): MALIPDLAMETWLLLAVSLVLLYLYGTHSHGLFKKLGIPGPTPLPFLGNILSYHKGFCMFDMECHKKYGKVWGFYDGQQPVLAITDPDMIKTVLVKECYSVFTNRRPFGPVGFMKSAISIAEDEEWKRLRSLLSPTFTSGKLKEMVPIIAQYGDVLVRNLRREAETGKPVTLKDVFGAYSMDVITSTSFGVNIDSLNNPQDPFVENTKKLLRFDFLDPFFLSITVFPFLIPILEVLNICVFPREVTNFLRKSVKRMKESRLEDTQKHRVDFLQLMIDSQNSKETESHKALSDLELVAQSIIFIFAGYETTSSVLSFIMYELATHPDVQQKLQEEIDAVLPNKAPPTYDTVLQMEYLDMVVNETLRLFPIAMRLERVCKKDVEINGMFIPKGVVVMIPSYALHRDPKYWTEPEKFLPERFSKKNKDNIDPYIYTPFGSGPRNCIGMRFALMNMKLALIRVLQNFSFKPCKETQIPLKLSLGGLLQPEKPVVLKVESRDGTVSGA

T2 sequence (P10635 whole entry): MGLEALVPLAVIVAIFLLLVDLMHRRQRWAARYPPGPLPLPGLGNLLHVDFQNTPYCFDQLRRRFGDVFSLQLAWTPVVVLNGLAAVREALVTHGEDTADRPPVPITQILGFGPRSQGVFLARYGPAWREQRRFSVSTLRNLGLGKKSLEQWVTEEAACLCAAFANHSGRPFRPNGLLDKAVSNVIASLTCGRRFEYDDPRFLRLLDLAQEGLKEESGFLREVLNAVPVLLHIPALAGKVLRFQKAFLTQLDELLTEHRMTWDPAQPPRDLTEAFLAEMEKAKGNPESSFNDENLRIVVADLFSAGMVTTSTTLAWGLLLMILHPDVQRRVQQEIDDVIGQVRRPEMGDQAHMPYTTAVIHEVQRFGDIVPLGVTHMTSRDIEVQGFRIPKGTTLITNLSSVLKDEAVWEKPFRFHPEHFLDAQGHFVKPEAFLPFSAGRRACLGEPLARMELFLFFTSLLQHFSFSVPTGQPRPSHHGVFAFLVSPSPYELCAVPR

| SMILES | Ki (CYP2C8) | inhibition of CYP2C8 (in words) (CYP2C8; HLM, remdesivir as compared to rosiglitazone) | IC50 (CYP2C8; remdesivir) | IC50 (CYP2D6 [1]) | Ki (CYP2D6 [1]) | inhibition of CYP2D6 (in words) (CYP2D6 [2]) | IC50 (CYP3A4) | Ki (CYP3A4) | inhibition of CYP3A4 (in words) (CYP3A4; HLM, as compared to ketoconazole) | IC50 (CYP2C8; positive control) |
| --- | --- | --- | --- | --- | --- | --- | --- | --- | --- | --- |
| CCC(CC)COC(=O)[C@H](C)N[P@](=O)(OC[C@H]1O[C@@](C#N)(c2ccc3c(N)ncnn23)[C@H](O)[C@@H]1O)Oc1ccccc1 [Remdesivir, remdesivir] | 134 nM | weak inhibition | 268 nM | 543 nM | 271 nM | weak inhibition | 483 nM | 241 nM | moderate/weak inhibition |  |
| CN(CCOc1ccc(CC2SC(=O)NC2=O)cc1)c1ccccn1 (centres unmarked) [Rosiglitazone, rosiglitazone] | 1600 nM |  |  |  |  |  |  |  |  | 3280 nM |
